The source made the active and inactive calls. The rule behind the calls is not given here. Bounds are passed on as bounds.

Data on ten compounds can be found in ChEMBL document CHEMBL5252592, “Design, synthesis, and biological activity evaluation of novel tubulin polymerization inhibitors based on pyrimidine ring skeletons” (Bioorg Med Chem Lett, 2023).

For assay [1], the system named is HepG2. Description: Antimigratory activity in human HepG2 cells assessed as reduction in wound closure by scratch assay. The class given is functional, cell-based. To be noted: dose 50-200 nM.
Assay [2] has as its system HepG2. Description: Antiinvasive activity in human HepG2 cells assessed as decrease in cells invading inferior chamber by transwell assay. The assay is classed as functional, cell-based. To be noted: dose 50-200 nM.
Assay [3] concerns the target T1, Tubulin (Homo sapiens) (UniProt P68371+Q9H4B7+P0DPH7+P68366+Q13509+Q71U36+P04350+Q3ZCM7+P07437+P68363+Q9BQE3+Q6PEY2+Q13885+Q9BVA1+Q9BUF5). Description: Disruption of microtubule organization in human HepG2 cells assessed as cell shrinkage at 50 to 200 nM by immunofluorescence staining based laser confocal microscopic analysis. As to conditions: dose 50-200 nM.
Assay [4] concerns HepG2. Description: Induction of cell cycle arrest in human HepG2 cells assessed as decrease in G1 phase cells at 100 nM incubated for 24 hrs by PI staining based flow cytometric analysis (reference value: 73.85%). The class given is functional. Also on record: scale not given: the % may be the effect or the level left. A general note: A flow cytometer gives signals particle by particle.

In assay [5] the test system is HepG2. Description: Induction of cell cycle arrest in human HepG2 cells assessed as increase in G2 phase cells at 100 nM incubated for 24 hrs by PI staining based flow cytometric analysis (reference value: 13.40%). The class given is functional.
Assay [6] relates to HepG2. Description: Induction of cell cycle arrest in human HepG2 cells assessed as decrease in S phase cells at 50 nM incubated for 24 hrs by PI staining based flow cytometric analysis (reference value: 12.75%). The assay is classed as functional. Also noted: scale not given: the % may be the effect or the level left.
In a further assay the test system is A549. Description: Antiproliferative activity against human A549 cells assessed as inhibition of cell growth. The class given is functional, cell-based.
The test system of assay [7] is HepG2. Description: Induction of cell cycle arrest in human HepG2 cells assessed as decrease in S phase cells at 200 nM incubated for 24 hrs by PI staining based flow cytometric analysis (reference value: 12.75%). Also noted: scale not given: the % may be the effect or the level left. The assay is classed as functional.
Assay [8] concerns HepG2. Description: Induction of apoptosis in human HepG2 cells assessed as early apoptotic cells at 50 nM incubated for 48 hrs by AnnexinV-FITC/PI staining based flow cytometric analysis (reference value: 1.83%). The assay is classed as functional.
Assay [9] deals with HepG2. Description: Induction of apoptosis in human HepG2 cells assessed as total apoptotic cells at 100 nM incubated for 48 hrs by AnnexinV-FITC/PI staining based flow cytometric analysis (reference value: 5.16%). The class given is functional.
In assay [10] the target is T1, Tubulin (Homo sapiens). Description: Disruption of microtubule organization in human HepG2 cells assessed as round or polygonal shaped cells at 50 to 200 nM by immunofluorescence staining based laser confocal microscopic analysis. The assay is classed as cell-based. To be noted: dose 50-200 nM.
In assay [11] the test system is HepG2. Description: Induction of cell cycle arrest in human HepG2 cells assessed as decrease in G1 phase cells at 200 nM incubated for 24 hrs by PI staining based flow cytometric analysis (reference value: 73.85%). Also noted: scale not given: the % may be the effect or the level left. The class given is functional.
Assay [12] has as its system HepG2. Description: Induction of apoptosis in human HepG2 cells assessed as viable cells at 100 nM incubated for 48 hrs by AnnexinV-FITC/PI staining based flow cytometric analysis (reference value: 92.0%). The assay is classed as functional. To be noted: read-out: Activity.
Assay [13] concerns HepG2. Description: Induction of apoptosis in human HepG2 cells assessed as viable cells at 50 nM incubated for 48 hrs by AnnexinV-FITC/PI staining based flow cytometric analysis (reference value: 92.0%). The class given is functional. As to conditions: read-out: Activity.
For assay [14], the target named is T1, Tubulin (Homo sapiens). Description: Disruption of microtubule organization in human HepG2 cells assessed as diffused intracellular microtubules at 50 to 200 nM by immunofluorescence staining based laser confocal microscopic analysis. As to conditions: dose 50-200 nM. The assay is classed as cell-based.
Assay [15] has as its system HepG2. Description: Antiproliferative activity against human HepG2 cells assessed as inhibition of cell growth. The class given is functional, cell-based.
Assay [16] relates to HepG2. Description: Induction of apoptosis in human HepG2 cells assessed as necrotic cells at 50 nM incubated for 48 hrs by AnnexinV-FITC/PI staining based flow cytometric analysis (reference value: 2.82%). The class given is functional.
Assay [17] has as its system HepG2. Description: Induction of apoptosis in human HepG2 cells assessed as total apoptotic cells at 50 nM incubated for 48 hrs by AnnexinV-FITC/PI staining based flow cytometric analysis (reference value: 5.16%). The class given is functional.
The test system of assay [18] is HepG2. Description: Induction of apoptosis in human HepG2 cells assessed as late apoptotic cells at 200 nM incubated for 48 hrs by AnnexinV-FITC/PI staining based flow cytometric analysis (reference value: 3.33%). The class given is functional.
Another assay deals with U-937. Description: Antiproliferative activity against human U-937 cells assessed as inhibition of cell growth. The assay is classed as functional, cell-based.
Assay [19] relates to HepG2. Description: Induction of apoptosis in human HepG2 cells assessed as total apoptotic cells at 200 nM incubated for 48 hrs by AnnexinV-FITC/PI staining based flow cytometric analysis (reference value: 5.16%). The class given is functional.
In assay [20] the test system is HepG2. Description: Induction of apoptosis in human HepG2 cells assessed as early apoptotic cells at 200 nM incubated for 48 hrs by AnnexinV-FITC/PI staining based flow cytometric analysis (reference value: 1.83%). The assay is classed as functional.
The subject of assay [21] is HepG2. Description: Induction of cell cycle arrest in human HepG2 cells assessed as decrease in G1 phase cells at 50 nM incubated for 24 hrs by PI staining based flow cytometric analysis (reference value: 73.85%). The assay is classed as functional. Also on record: scale not given: the % may be the effect or the level left.
The subject of assay [22] is HepG2. Description: Induction of apoptosis in human HepG2 cells assessed as necrotic cells at 200 nM incubated for 48 hrs by AnnexinV-FITC/PI staining based flow cytometric analysis (reference value: 2.82%). The assay is classed as functional.
Assay [23] deals with T1, Tubulin (Homo sapiens). Description: Inhibition of tubulin polymerization (unknown origin) assessed as decrease in fluorescence intensity at 2 uM. The assay is classed as protein-complex assay. To be noted: time 1000-2000 min, TDE = time-dependent effect.
Assay [24] relates to HepG2. Description: Induction of cell cycle arrest in human HepG2 cells assessed as decrease in S phase cells at 100 nM incubated for 24 hrs by PI staining based flow cytometric analysis (reference value: 12.75%). The class given is functional. Also noted: scale not given: the % may be the effect or the level left.
Assay [25] deals with HepG2. Description: Induction of apoptosis in human HepG2 cells assessed as late apoptotic cells at 50 nM incubated for 48 hrs by AnnexinV-FITC/PI staining based flow cytometric analysis (reference value: 3.33%). The class given is functional.
Assay [26] has as its system HepG2. Description: Induction of apoptosis in human HepG2 cells assessed as late apoptotic cells at 100 nM incubated for 48 hrs by AnnexinV-FITC/PI staining based flow cytometric analysis (reference value: 3.33%). The class given is functional.
The subject of another assay is Y79. Description: Antiproliferative activity against human Y79 cells assessed as inhibition of cell growth. The class given is functional, cell-based.
Assay [27] has as its system HepG2. Description: Induction of cell cycle arrest in human HepG2 cells assessed as increase in G2 phase cells at 50 nM incubated for 24 hrs by PI staining based flow cytometric analysis (reference value: 13.40%). The class given is functional.
For assay [28], the system named is HepG2. Description: Induction of apoptosis in human HepG2 cells assessed as early apoptotic cells at 100 nM incubated for 48 hrs by AnnexinV-FITC/PI staining based flow cytometric analysis (reference value: 1.83%). The class given is functional.
In assay [29] the test system is HepG2. Description: Induction of apoptosis in human HepG2 cells assessed as necrotic cells at 100 nM incubated for 48 hrs by AnnexinV-FITC/PI staining based flow cytometric analysis (reference value: 2.82%). The assay is classed as functional.
Assay [30] deals with HepG2. Description: Induction of G2/M phase cell cycle arrest in human HepG2 cells assessed as increase in P21 protein expression by Western blot analysis. The assay is classed as functional, cell-based. To be noted: dose 50-200 nM. (In general: In western blotting, separated proteins are transferred to a membrane and probed.)
The test system of assay [31] is HepG2. Description: Induction of G2/M phase cell cycle arrest in human HepG2 cells assessed as decrease in cyclinB1 protein expression by Western blot analysis. As to conditions: dose 50-200 nM. The assay is classed as functional, cell-based.
Assay [32] deals with HepG2. Description: Induction of apoptosis in human HepG2 cells assessed as viable cells at 200 nM incubated for 48 hrs by AnnexinV-FITC/PI staining based flow cytometric analysis (reference value: 92.0%). The assay is classed as functional. As to conditions: read-out: Activity.
The subject of assay [33] is HepG2. Description: Induction of cell cycle arrest in human HepG2 cells assessed as increase in G2 phase cells at 200 nM incubated for 24 hrs by PI staining based flow cytometric analysis (reference value: 13.40%). The assay is classed as functional.

With `COc1cc(Nc2nccc(-c3ccc4c(c3)OCCO4)n2)cc(OC)c1OC`, the Activity result is “Dose-Dependent Effect” with HepG2 [1]; “Dose-Dependent Effect” in the assay with HepG2 [2]; 65.52% with HepG2 [4]; 27.53% in the assay with HepG2 [5]; 4.85% in the assay on HepG2 [6]; 0.88% in the assay with HepG2 [7]. Also, the Activity in the assay with HepG2 [8] is on record as 21.5%; in the assay on HepG2 [9], 41.3%; with HepG2 [11], 63.13%; with HepG2 [16], 0.12%; in the assay with HepG2 [17], 38.4%; in the assay with HepG2 [18] it was 33.7%. In addition, the Activity is 43.6% with HepG2 [19]; 10.9% in the assay on HepG2 [20]; 69.07% in the assay on HepG2 [21]; 2.13% in the assay on HepG2 [22]; 6.95% in the assay with HepG2 [24]; 16.9% in the assay on HepG2 [25]. Moreover, the Activity with HepG2 [26] was 23.4%; in the assay on HepG2 [27], 26.08%; with HepG2 [28], 17.9%; in the assay with HepG2 [29], 0.82%; in the assay on HepG2 [30], “Dose-Dependent Effect”; in the assay with HepG2 [31], “Dose-Dependent Effect”. The Activity in the assay on HepG2 [33] came out at 35.99%. Besides, the outcome on Tubulin (Homo sapiens) [3], at Tubulin (Homo sapiens) [10] and on Tubulin (Homo sapiens) [14] was Active. The IC50 in the assay on A549 is 0.8 µM; with HepG2 [15], 0.11 µM; in the assay with U-937 it was 0.07 µM; in the assay on Y79, 0.1 µM. Further, the viability at 0.1 µM in the assay on HepG2 [12] was 57.9%. In the assay with HepG2 [13], the viability at 0.05 µM was found to be 61.5%. Further, the inhibition result at Tubulin (Homo sapiens) [23] was “Tde”. The viability at 0.2 µM with HepG2 [32] worked out at 63.3%.
For the compound `COc1cc(Nc2cc(-c3coc4ccccc34)nc(N)n2)cc(OC)c1OC`, the IC50 is 1.68 µM in the assay on A549, 1.97 µM with HepG2 [15], 1.4 µM with U-937 and over 10 µM in the assay on Y79.
For `COc1cc(Nc2nccc(-c3coc4ccccc34)n2)cc(OC)c1OC`, the half-maximal inhibitory concentration (IC50) was 3.83 µM with A549, 4.19 µM in the assay with HepG2 [15], 3.52 µM in the assay on U-937 and over 10 µM in the assay with Y79.
Regarding `COc1cc(Nc2ccnc(-c3ccc4[nH]c5ccccc5c4c3)n2)cc(OC)c1OC`, the IC50 is 3.88 µM in the assay on A549, 3.77 µM in the assay with HepG2 [15], 1.31 µM in the assay on U-937 and over 10 µM in the assay with Y79.
Turning to `COc1cc(Nc2nccc(-c3csc4ccccc34)n2)cc(OC)c1OC`, the IC50 was over 10 µM in the assay on A549, 3.98 µM in the assay on HepG2 [15], 1.78 µM in the assay with U-937 and over 10 µM with Y79.
For `COc1cc(Nc2cc(-c3ccc4c(c3)CCO4)ncn2)cc(OC)c1OC`, the IC50 in the assay with A549, in the assay with HepG2 [15], with U-937 and with Y79 was over 10 µM throughout.
Take `COc1cc(Nc2cc(-c3ccc4cc[nH]c4c3)ncn2)cc(OC)c1OC`: the IC50 in the assay on A549, with HepG2 [15], in the assay on U-937 and in the assay with Y79 was over 10 µM in each case.
On to `COc1cc(Nc2nccc(-c3ccc4[nH]c5ccccc5c4c3)n2)cc(OC)c1OC`, for which the IC50 is 3.12 µM in the assay with A549, 1.48 µM in the assay on HepG2 [15], 0.9 µM in the assay with U-937 and over 10 µM in the assay with Y79.
In the same order, the values of `COc1cc(Nc2cc(-c3cc4ccccc4o3)ncn2)cc(OC)c1OC` are over 10 µM, over 10 µM, over 10 µM and over 10 µM.
In the same order, the values of `COc1cc(Nc2cc(-c3cc4ccccc4o3)nc(N)n2)cc(OC)c1OC` are over 10 µM, over 10 µM, over 10 µM and over 10 µM.

By IC50 is commonly meant the concentration that inhibits the measured activity by half.
